Activity calls are given as the source filed them. The calls are words filed in the database; no cut-off is given here.

Data set [1] concerns Mus musculus. The data set is described as follows: Acute toxicity in ICR mouse assessed as morphological changes in organs at 100 umol/kg, po administered as single dose observed for 7 days. It is filed as organism-based. As to conditions: in vivo, 168 h.
Data set [2] has as its system Calf thymus DNA. The data set is described as follows: Induction of DNA intercalation of calf thymus DNA assessed as increase in absorption at 7.4 uM measured at 208 nm using 200 uM calf thymus DNA by UV spectrophotometry. It is filed as nucleic-acid assay. The note with it: Bos taurus.
Data set [3] can be described thus: Retention time of compound by HPLC method. The data set is classed as physicochemical.
Data set [4] concerns Mus musculus. The data set is described as follows: Acute toxicity in ICR mouse xenografted with S180 cells assessed as kidney weight at 100 umol/kg, po. It is filed as organism-based, CCRF S-180. The note with it: in vivo.
In another data set the test system is Tumour. The data set is described as follows: Drug level in tumor in ICR mouse xenografted with S180 cells at 1 umol/kg/day, po after 7 days. It is filed as ADME, organism-based, Neoplasm, CCRF S-180. As to conditions: in vivo, 168 h.
The subject of data set [5] is Calf thymus DNA. The data set is described as follows: Induction of DNA intercalation of calf thymus DNA assessed as decrease in fluorescence intensity at 345 nm measured at 0.18 uM by fluorescence spectroscopy. The data set is classed as nucleic-acid assay. As to conditions: Bos taurus.
For data set [6], the system named is Mus musculus. The data set is described as follows: Acute toxicity in ICR mouse xenografted with S180 cells assessed as spleen weight at 100 umol/kg, po. The data set is classed as organism-based, CCRF S-180. As to conditions: in vivo.
The next data set has as its system Liver. The data set is described as follows: Drug uptake in ICR mouse liver xenografted with mouse S180 cells at 1 umol/kg/day, po after 7 days. It is filed as ADME, organism-based, CCRF S-180. The note with it: in vivo, 168 h.
The test system of data set [7] is Calf thymus DNA. The data set is described as follows: Induction of DNA intercalation of calf thymus DNA assessed as increase in absorption at 0.9 uM using 4 uM calf thymus DNA measured at 258 nm by UV spectrophotometry. As to conditions: Bos taurus. The data set is classed as nucleic-acid assay.
The next data set relates to Spleen. The data set is described as follows: Drug uptake in ICR mouse spleen xenografted with mouse S180 cells at 1 umol/kg/day, po after 7 days. As to conditions: in vivo, 168 h. It is filed as ADME, organism-based, CCRF S-180.
Data set [8] has as its system CCRF S-180. The data set is described as follows: Antiproliferative activity against mouse S180 cells assessed as cell viability after 48 hrs by MTT assay. The data set is classed as functional, cell-based. As to conditions: CCRF S-180, 48 h. Background: Formazan colour is commonly taken as a measure of viable cells.
Data set [9] concerns Calf thymus DNA. The data set is described as follows: Induction of DNA intercalation of calf thymus DNA assessed as increase in absorption at 0.9 uM using 4 uM calf thymus DNA measured at 208 nm by UV spectrophotometry. It is filed as nucleic-acid assay. The note with it: Bos taurus.
In another data set the test system is Heart. The data set is described as follows: Drug uptake in ICR mouse heart xenografted with mouse S180 cells at 1 umol/kg/day, po after 7 days. As to conditions: in vivo, 168 h. It is filed as ADME, organism-based, CCRF S-180.
Data set [10] relates to HeLa. The data set is described as follows: Antiproliferative activity against human HeLa cells assessed as cell viability after 48 hrs by MTT assay. The data set is classed as functional, cell-based.
Data set [11] concerns HeLa. The data set is described as follows: Antiproliferative activity against human HeLa cells at 3.5 uM after 24 hrs by confocal microscopy. It is filed as functional, cell-based.
For data set [12], the system named is Mus musculus. The data set is described as follows: Acute toxicity in ICR mouse xenografted with S180 cells assessed as heart weight at 100 umol/kg, po. The data set is classed as organism-based, CCRF S-180. The note with it: in vivo.
Data set [13] relates to Mus musculus. The data set is described as follows: Acute toxicity in ICR mouse assessed as normal behavior at 100 umol/kg, po administered as single dose observed for 7 days. It is filed as organism-based. As to conditions: in vivo, 168 h.
Data set [14] deals with Mus musculus. The data set is described as follows: Acute toxicity in ICR mouse xenografted with S180 cells assessed as brain weight at 100 umol/kg, po. The data set is classed as organism-based, CCRF S-180. As to conditions: in vivo.
Data set [15] deals with Mus musculus. The data set is described as follows: Acute toxicity in ICR mouse assessed as change in serum creatinine level at 100 umol/kg, po administered as single dose measured on 7th day. The data set is classed as organism-based. As to conditions: in vivo.
The test system of another data set is Blood. The data set is described as follows: Drug uptake in ICR mouse blood xenografted with mouse S180 cells at 1 umol/kg/day, po after 7 days. The data set is classed as ADME, organism-based, CCRF S-180. As to conditions: in vivo, 168 h.
A further data set concerns Lung. The data set is described as follows: Drug uptake in ICR mouse lung xenografted with mouse S180 cells at 1 umol/kg/day, po after 7 days. The data set is classed as ADME, organism-based, CCRF S-180. The note with it: in vivo, 168 h.
The test system of data set [16] is CCRF S-180. The data set is described as follows: Antitumor activity against mouse S180 cells xenografted in po dosed ICR mouse assessed as decrease in tumor growth administered daily for 14 days. It is filed as functional, organism-based.
Data set [17] relates to Mus musculus. The data set is described as follows: Acute toxicity in ICR mouse assessed as change in serum AST level at 100 umol/kg, po administered as single dose measured on 7th day. The data set is classed as organism-based. The note with it: in vivo.
Data set [18] has as its system Mus musculus. The data set is described as follows: Cardiotoxicity in ICR mouse xenografted with mouse S180 cells. The data set is classed as toxicity, organism-based, CCRF S-180. The note with it: in vivo.
For data set [19], the system named is Calf thymus DNA. The data set is described as follows: Induction of DNA intercalation of calf thymus DNA assessed as increase in fluorescence intensity at 345 nm using 80 uM calf thymus DNA by fluorescence spectroscopy. The data set is classed as nucleic-acid assay. As to conditions: Bos taurus.
The test system of a further data set is Kidney. The data set is described as follows: Drug uptake in ICR mouse kidney xenografted with mouse S180 cells at 1 umol/kg/day, po after 7 days. It is filed as ADME, organism-based, CCRF S-180. As to conditions: in vivo, 168 h.
The test system of data set [20] is Mus musculus. The data set is described as follows: Acute toxicity in ICR mouse assessed as change in serum ALT level at 100 umol/kg, po administered as single dose measured on 7th day. It is filed as organism-based. As to conditions: in vivo.
The subject of data set [21] is CCRF S-180. The data set is described as follows: Antiproliferative activity against mouse S180 cells at 3.5 uM after 24 hrs by confocal microscopy. It is filed as functional, cell-based.
The subject of data set [22] is CCRF S-180. The data set is described as follows: Potency index, ratio of activity of Doxorubicin to test compound for antitumor activity against mouse S180 cells. The data set is classed as functional.
Data set [23] concerns Calf thymus DNA. The data set is described as follows: Induction of DNA intercalation of calf thymus DNA assessed as decrease in absorption at 7.4 uM measured at 258 nm using 200 uM calf thymus DNA by UV spectrophotometry. It is filed as nucleic-acid assay. As to conditions: Bos taurus.
Another data set has as its system Brain. The data set is described as follows: Drug uptake in ICR mouse brain xenografted with mouse S180 cells at 1 umol/kg/day, po after 7 days. As to conditions: in vivo, 168 h. It is filed as ADME, organism-based, CCRF S-180.
Data set [24] has as its system Mus musculus. The data set is described as follows: Acute toxicity in ICR mouse xenografted with S180 cells assessed as liver weight at 100 umol/kg, po. The data set is classed as organism-based, CCRF S-180. As to conditions: in vivo.

Usually IC50 stands for the concentration that inhibits the measured activity by half. On to `O=C1[C@@H]2Cc3c([nH]c4ccccc34)CN2C(=O)[C@@H]2Cc3c([nH]c4ccccc34)CN12`, for which the Activity result in the data set on Mus musculus [1], in the data set on Mus musculus [4], with Mus musculus [6], with Mus musculus [12], with Mus musculus [13] and with Mus musculus [14] was “Non-toxic” each time. The Activity entry in the data set with Mus musculus [15] is “Non-toxic”; in the data set with CCRF S-180 [16] it was “Dose-dependent effect”; in the data set with Mus musculus [17], “Non-toxic”; in the data set with Mus musculus [18], “Non-toxic”; with Mus musculus [20], “Non-toxic”; in the data set with Mus musculus [24], “Non-toxic”. Further, the result with Calf thymus DNA [2], in the data set on Calf thymus DNA [5], with Calf thymus DNA [7], in the data set on Calf thymus DNA [9], with HeLa [11] and in the data set on Calf thymus DNA [19] was Active. The outcome in the data set on CCRF S-180 [21] and in the data set on Calf thymus DNA [23] was Active. Besides, in data set [3], the Retention_time is recorded as 5.704 min. Moreover, the Drug uptake entry with Tumour was “Active”; in the data set with Liver it was “Not Active”; with Spleen it was “Not Active”; in the data set with Heart, “Not Active”; with Blood it was “Not Active”; with Lung it was “Not Active”. Also, the Drug uptake entry in the data set on Kidney and in the data set on Brain was “Not Active” each time. The results for the IC50 in the data set with CCRF S-180 [8] and in the data set with HeLa [10] were 390 nM and 3500 nM, respectively. Moreover, the Ratio in the data set with CCRF S-180 [22] was determined as 2.
As for `COc1cccc2c1C(=O)c1c(O)c3c(c(O)c1C2=O)C[C@@](O)(C(=O)CO)C[C@@H]3O[C@H]1C[C@H](N)[C@H](O)[C@H](C)O1` [DOXORUBICIN], the Activity result in the data set on Mus musculus [18] was “Toxic”.
